In experiment [1] the test system is JNK, p38 and ERK. The settings on record: cited from earlier work.
In experiment [2] the test system is human H5N1 isolate A/Thailand/KAN-1/2004. The format is cell-based, influenza A virus.
For experiment [3], the system named is viral proteins M1, NP, NS1 and PB1.
In experiment [4] the test system is H5N1 virus (MB1).
The subject of experiment [5] is IP10. The settings on record: mouse, in vivo.
Experiment [6] deals with JNK, p38 and ERK.
Experiment [7] has as its system H7N1 virus (FPV).
Experiment [8] relates to IFN-gamma. The settings on record: mouse, in vivo.
The test system of experiment [9] is viral ribonucleoprotein complexes (RNP).
In experiment [10] the test system is poly-ADP-ribose polymerase (PARP).
Experiment [11] deals with A/FPV/Bratislava/79 (H7N7).
For experiment [12] the following is noted: human, in vivo.

Where two headings read alike, the source gives them in different places.

As for `CC(=O)Oc1ccccc1C(=O)O` [acetylsalicylic acid, reference compound], in [1], the “virus-induced activation of JNK, p38 and ERK” value is given as “is not inhibited”. Moreover, the “inhibition of virus titers” value in experiment [2] is given as “efficient inhibition of the virus titers of the H5N1 strain by several decimal powers”.

With “lysine-glycine-acetylsalicylate [LG-acetylsalicylate]”, the “accumulation of the viral proteins M1, NP, NS1 and PB1” value in experiment [3] is reported as “is not inhibited”. Also, the reduction of replication entry in experiment [4] and in experiment [7] was “more than 99%” throughout. Moreover, the “reduction of IP10 m-RNA expression” value in experiment [5] (ip) is 26%; in experiment [5] (iv) it was 62%. The “virus-induced activation of JNK, p38 and ERK” value in experiment [6] is recorded as “is not blocked”. The “reduction of IFN-gamma m-RNA expression” value is recorded as 50% in experiment [8] (ip) and 68% in experiment [8] (iv). Also, the “retention of viral RNP complexes” value in [9] is given as “efficient retention of viral RNP complexes”. For the same molecule, the “band of the cleaved PARP (caspase activation)” value in experiment [10] is “efficiently reduced”. Also, in experiment [11], the “inhibition of virus multiplication (virus titers versus time)” value was “equally efficiently inhibits the virus multiplication”. Further, the “improvement of the symptoms, all other patients” value in [12] is recorded as “improvement of the symptoms occurred on the 3rd day”. Further, in [12], the “improvement of the symptoms, first day after the administration” value was “significant improvement of the symptoms”. Moreover, the “inhibition of virus titers” value in [2] is “efficient inhibition of the virus titers of the H5N1 strain by several decimal powers”.

The record behind these values is patent US9492413B2 (priority 2008, dated 2016).
